{"source": "patent US11549123B2", "about": "“Plant EPSP synthases and methods of use” (PIONEER HI-BRED INTERNATIONAL, INC., priority 2015, dated 2023)", "format_in_all_cases": "biochemical", "conditions_in_all_cases": "[E] 0.07 uM, [Gly] 1000 uM", "key": {"[1]": {"biological_target": "T1, Zea mays EPSPS variant Zm-H6 (868-H6) with A76V (H6-A76V) (Zea mays, UniProt O24566, A1R/A3W/A415G/A71Q/A75V/D401G/E301S/E390G/G101A/I207L/K83R/L97C/T278A/T360S/T440Q/V437R)", "T1 sequence (O24566 with tags, fused parts or gaps A1R/A3W/A71Q/A75V/K83R/L97C/G101A/I207L/T278A/E301S/T360S/E390G/D401G/A415G/V437R/T440Q)": "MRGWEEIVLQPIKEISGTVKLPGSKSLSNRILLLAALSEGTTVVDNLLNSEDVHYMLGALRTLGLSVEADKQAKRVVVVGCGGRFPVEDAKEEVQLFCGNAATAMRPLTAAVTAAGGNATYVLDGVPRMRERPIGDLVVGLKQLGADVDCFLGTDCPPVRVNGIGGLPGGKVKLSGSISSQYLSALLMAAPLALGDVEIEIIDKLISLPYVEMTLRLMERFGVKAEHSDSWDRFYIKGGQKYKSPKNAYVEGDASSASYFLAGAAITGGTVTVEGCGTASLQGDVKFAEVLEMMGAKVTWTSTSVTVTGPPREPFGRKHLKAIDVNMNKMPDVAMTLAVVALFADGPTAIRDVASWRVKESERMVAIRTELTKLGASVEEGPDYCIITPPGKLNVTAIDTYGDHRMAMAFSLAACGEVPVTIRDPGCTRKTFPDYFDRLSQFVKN", "assay": "Rapid two-rate method for (kcat/KM)*KI, H6-A76V", "source_text": "(§1) There are several practical considerations for accurately estimating (kcat/KM)*KI with the rapid method. […] 2) The inhibitor concentration must be adjusted so as to obtain a degree of inhibition that minimally amplifies the error in the term v0-vi in Equation 3. If inhibition is too little, v0-vi will be small, and the error in the multiplier vi×v0/(v0-vi) will be large. […] 3) Substrate concentration should be set at the approximate KM of the parental variant(s), subject to the sensitivity of the assay. High substrate concentration obscures sensitivity to the inhibitor and reduces stringency for capturing improvements in KM. Depending on the necessity for speed, there exists opportunity for customizing enzyme and inhibitor concentrations. […] The rapid method was repeated for those and obtained data that correlated better with data obtained by substrate saturation analysis. For screening purposes however, that correlation step is not necessary. Conditions can be set so that variants with a pre-determined minimal fitness level are accurately quantified.\n(§2) In Table 15, parameters above the heavy line for the rapid method were obtained under standard conditions. For variants shown below the heavy line, the rapid analysis was repeated with enzyme or glyphosate concentrations adjusted as needed to generate sufficient signal within the limits for linear initial rates."}, "[2]": {"biological_target": "T2, Zea mays EPSPS variant Zm-H6 (868-H6) (Zea mays, UniProt O24566, A1R/A3W/A415G/A71Q/D401G/E301S/E390G/G101A/I207L/K83R/L97C/T278A/T360S/T440Q/V437R)", "T2 sequence (O24566 with tags, fused parts or gaps A1R/A3W/A71Q/K83R/L97C/G101A/I207L/T278A/E301S/T360S/E390G/D401G/A415G/V437R/T440Q)": "T1 sequence (O24566 with tags, fused parts or gaps A1R/A3W/A71Q/A75V/K83R/L97C/G101A/I207L/T278A/E301S/T360S/E390G/D401G/A415G/V437R/T440Q) with V76A", "assay": "Rapid two-rate method for (kcat/KM)*KI, Zm-H6", "source_text": "In the Michaelis-Menten equation for steady state reaction velocity with competitive inhibition, the term (kcat/KM)*KI cannot be isolated due to the KM and [S] terms in the denominator. However, if two rate measurements are made at different inhibitor concentrations, those terms can be eliminated by subtraction and (kcat/KM)*KI isolated, as follows:\n[formula] where v0 and v1 are initial velocities without and with inhibitor but at the same substrate and enzyme concentrations. Although Equations 2 and 3 are equally valid, to generate the data in Table 1, rate measurement was performed with and without inhibitor using Equation 3. Source of Reagents, Enzyme and Variants\nEPSPS activity was determined by quantifying the phosphate generated by the reaction. Release of phosphate was coupled to reaction with MESG, catalyzed by purine-nucleoside phosphorylase, using standard methods. The absorbance change that occurs was monitored continuously at 360 nm, where the extinction is 11,200 M-1 cm-1, with a Spectramax plate reader (Molecular Devices). […] The enzyme concentration was adjusted so as to generate sufficient signal without exceeding the limit for linear initial reaction rates. […]\nThere are several practical considerations for accurately estimating (kcat/KM)*KI with the rapid method. […] Conditions can be set so that variants with a pre-determined minimal fitness level are accurately quantified. […]"}, "[3]": {"biological_target": "T3, Zea mays EPSPS variant Zm-H6 (868-H6) with H54E (H6-H54E) (Zea mays, UniProt O24566, A1R/A3W/A415G/A71Q/D401G/E301S/E390G/G101A/H53E/I207L/K83R/L97C/T278A/T360S/T440Q/V437R)", "T3 construct": "868-H6 plus H54E; E. coli BL21(DE3), Ni-NTA purified", "T3 sequence (O24566 with tags, fused parts or gaps A1R/A3W/H53E/A71Q/K83R/L97C/G101A/I207L/T278A/E301S/T360S/E390G/D401G/A415G/V437R/T440Q)": "T1 sequence (O24566 with tags, fused parts or gaps A1R/A3W/A71Q/A75V/K83R/L97C/G101A/I207L/T278A/E301S/T360S/E390G/D401G/A415G/V437R/T440Q) with H54E, V76A", "assay": "Rapid two-rate method for (kcat/KM)*KI, H6-H54E", "source_text": "as §1, §2"}}, "note": "Substitutions are numbered along the chain they refer to.", "data": [{"smiles": "O=C(O)CNCP(=O)(O)O", "note": "[glyphosate, N-phosphonomethylglycine]", "values": [{"measurement": "(kcat/KM)*KI", "setting": "[1]", "result": 2418}, {"measurement": "(kcat/KM)*KI", "setting": "[2]", "result": 4013}, {"measurement": "(kcat/KM)*KI", "setting": "[3]", "result": 4529}]}]}
